{"source": "patent US20120202287A1", "about": "“Stem Cell Culture Methods” (priority 2009, published 2012)", "format_in_all_cases": "cell-based, human", "key": {"[1]": {"system": "hESCs (SA121)", "experiment": "Feeder-free culture of hESCs without exogenous FGF, supplemented with EHNA", "procedure": "Cells were grown on fibronectin coated dishes. A fibronectin (Calbiochem) solution (0.1 mg/ml) (diluted in PBS) is used to coat the tissue culture dishes for 15 mins at 37 C.\nThe fully supportive media used to culture the stem cells was a 1:1 mixture of defined media (see below) and conditioned vitrohES. vitrohES media was conditioned for 24 hours on a layer of mitotically inactivated mouse embryonic fibroblasts plated at 4×10^5 cells/ml of conditioned media. Passaging was performed first by removing the media from the cells and washing with PBS. Trypsin (sourced from Invitrogen) was added to the cells and incubated for 1-2 mins at room temperature. Fresh media was added to neutralize the cells and then gently scraped off using a cell scraper and passaged 1 in 4 to fibronectin coated dishes.\nAfter washing with PBS, cells were fixed in 4% paraformaldehyde (Sigma) for 10 mins at room temperature and washed again. Cells were then permeabilised in ethanol for 2 minutes. Blocking was performed in 10% Goat serum (sigma)/PBS (Invitrogen) for one hour at room temperature. The following primary antibodies (dilutions in brackets) were then incubated for 1 hour at room temperature diluted in blocking solution: mouse anti-POU5F1 (Santa cruz) (1:250), rabbit anti-PAX6 (Chemicon) (1:1000), mouse anti B-tubulin III (Sigma) (1:1000), mouse anti-Alpha-feta-protein (AFP) (Sigma) (1:400), mouse anti-muscle-specific actin (SMA) (Dako) (1:50), SSEA1 (Hybdridoma bank University of IOWA) (1:5), SSEA3 (Hybdridoma bank University of IOWA) (1:5), SSEA4 (Hybdridoma bank. University of IOWA) (1:5), Tra1-60 (Santa cruz) (1:200) and Tra1-80 (Santa Cruz) (1:200). […] All immunofluorescence was visualised and captures using Zeiss Axiovision image analysis system (http://www.ziess.com).\nhESCs (SA121) were placed into standard feeder free conditions without exogenous FGF (including conditioned media made without addition of exogenous FGF) but supplemented with 10 μM EHNA. Cells were initially seeded from a trypsin passage of a standard, FGF containing, feeder free culture (passage 33 post feeder free; p100 total).\nControls were also set up without FGF or EHNA. Three lines were set up to grow independently for each condition and these were routinely passaged using trypsin as normal. Passaging was usually a 1 in 4 split approximately every 4 days.\nA further culture of SA121 was transferred to standard feeder free conditions without exogenous FGF (including conditioned media made without addition of exogenous FGF) but supplemented with 10 μM EHNA. Cells were initially seeded from a trypsin passage of a standard, FGF containing, feeder free culture (passage 7 post feeder free; p 48 total)."}, "[2]": {"system": "hESCs", "experiment": "Directed monolayer neuronal differentiation with and without EHNA", "procedure": "[…] RNA samples were taken at various time intervals and a variety of marker gene expression was measured using qRT-PCR.\nIn FIGS. 11a-d, the value of 1 was set to the level of expression in undifferentiated hES cells. In FIG. 12a, the value of 1 was set to the expression level in the untreated control samples."}, "[3]": {"system": "SA121 hESCs", "experiment": "General (monolayer) differentiation on matrigel in defined media, qRT-PCR of stem cell and differentiation markers after 14 days", "set-up": "key to Full EHNA effect: those which maintained at least 50% of the level of NANOG-expression in comparison to EHNA and those that inhibited the expression of PAX6 to 50% or less than the value untreated controls were considered to have an EHNA-like effect", "settings": "14 days, qRT-PCR", "procedure": "In order to ascertain the efficacy of the compounds of the present invention, each compound was tested to determine whether it can maintain the stem cell marker NANOG and/or block the differentiation marker PAX6 in the face of differentiating conditions in a manner similar to EHNA. Cells enzymatically passaged onto matrigel-coated dishes and grown for 2 weeks in defined media with or without (control) compound addition were analysed by qRT-PCR to determine the level of NANOG and PAX6 expression.\nFor general differentiation experiments cells were passaged with trypsin onto matrigel coated twelve-well dishes in the fully supportive media (see above). The media was then changed to defined media 24 h later and any experimental component was first added at this point. The media and experimental supplement were changed daily.\nCells were routinely harvested for qRT-PCR analysis 14 days after the first addition of the experimental compound.\nTotal RNA was extracted using QIAGEN RNeasy kits (Qiagen Inc, Valencia, Calif., http://www.qiagen.com) and DNaseI treatment was performed using Turbo DNA-Free (Ambion). The absence of genomic DNA was confirmed by quantitative PCR (qPCR) (see below) using glyceraldehyde-3-phosphate dehydrogenase (GAPDH) Taqman primers and probe (MWG). cDNA was synthesized with 2 μg total RNA in 20 μl using Superscript II according to manufacturers' instructions ((Carlsbad, Calif., http://www.Invitrogen.com)). For qPCR, cDNAs were diluted 1 in 60 and 5 μl used per sample in a 15 μl total reaction volume. Platinum pPCR supermix UDG with Rox (Carlsbad, Calif., http://www.Invitrogen.com) was used according to the manufacturer's instructions using an Applied Biosystems 7300 real time PCR system (Applied Biosystems, Warrington, UK, http://europe.appliedbiosystems.com). Each reaction contained 0.6 μM of each primer and Taqman probe (MWG). Biological and technical replicates were each performed in triplicate for each sample, standardised to the GAPDH housekeeping gene and relative expression values were calculated using the 7300 system SDS software (Applied Biosystems, Warrington, UK, http://europe.appliedbiosystems.com).\nCells were enzymatically passaged onto matrigel-coated dishes and grown for 2 weeks in defined media. After 14 days, qRT-PCR was utilised to analyse the expression of a variety of markers of pluripotency and differentiation. In the graphs in FIG. 9 the value 1 was set to the expression level of the gene in undifferentiated SA121 hESCs.\nCells were enzymatically passaged onto matrigel-coated dishes and grown for 2 weeks in defined media (1× confluent T25 tissue culture flask was passaged to 2×12 well dishes) with or without (control) compound addition. All compounds were added at 10 uM and each was performed in triplicate. Media and compounds were changed every 48 hours. After 14 days RNA was isolated and qRT-PCR was utilised to analyse the expression of NANOG and PAX6. The results are illustrated in FIGS. 13 to 17.\nIn the graphs in FIGS. 13, 14 15, 16 and 17 the value 1 was set relative to the expression level of the gene in the control (no compound) samples. […] This experiment allowed the effect of the EHNA-related compounds to be measured directly in comparison to EHNA. […] Those which had on effect, to these levels, on either PAX6 or NANOG were considered to have a partial-EHNA effect."}, "[4]": {"system": "hESC line SA461", "experiment": "hESC line transferred directly from MEF feeders to feeder-free culture without FGF, supplemented with EHNA", "settings": "passage 7, 10 uM EHNA, no exogenous FGF", "procedure": "A culture of the hESC line SA461 was transferred from a supportive MEF feeder layer directly, using manual dissection, to standard feeder free conditions in the absence of exogenous FGF but supplemented with 10 uM EHNA. A control was also grown with neither FGF nor EHNA present. Cells were subsequently passaged by the standard trypsin feeder free technique. It was determined by passage 7 that the EHNA containing cultures were almost 100% positive for POU5F1 whereas positive staining in the cultures absent for FGF and EHNA was minimal (FIG. 8)."}, "[5]": {"settings": "10 passages, immunofluorescence"}}, "note": "“Also recorded” adds a separate entry of the source."}
{"molecule": "CCCCCC[C@@H]([C@@H](C)O)n1cnc2c(N)ncnc21.Cl", "note": "[EHNA, erythro-9-(2-Hydroxy-3-nonyl)adenine, HCl]", "values": [{"measurement": "maintenance of hESCs in an undifferentiated state in the absence of FGF", "setting": "[1]; 10 μM EHNA, feeder free, no exogenous FGF", "result": "can be maintained in an undifferentiated state in the absence of FGF if EHNA is present"}, {"measurement": "differentiation marker SSEA1", "setting": "[1]; [5]", "result": "negative"}, {"measurement": "stem-cell markers SSEA3, SSEA4, TRA-160, TRA-180 and OCT4", "setting": "[1]; [5]", "result": "positive"}, {"measurement": "expression of the stem cell markers NANOG and POU5F1 in the absence of FGF", "setting": "[1]; FIG. 3", "result": "maintained"}, {"measurement": "ability to differentiate to all three germ layers", "setting": "[1]; after at least 22 passages without FGF with EHNA", "result": "can differentiate to all three germ layers"}, {"measurement": "karyotype", "setting": "[1]; passage 21, at least one replicate line", "result": "karyotypically normal"}, {"measurement": "POU5F1 staining", "setting": "[1]; passage 21, immunofluorescence", "result": "all positive for POU5F1"}, {"measurement": "hESC gene expression (TLDA)", "setting": "[1]; passage 30, compared with hESCs grown with FGF without EHNA", "result": "appropriate hESC gene expression"}, {"measurement": "cells staining positive for POU5F1 versus untreated differentiation", "setting": "[2]; 4 weeks (28 days) of neuronal differentiation", "result": "At least 10 times"}, {"measurement": "PAX6 levels relative to the control differentiation", "setting": "[2]; 4 weeks of differentiation (passage at 2 weeks)", "result": "> 50", "unit": "%"}, {"measurement": "levels of the stem cells markers NANOG and ZFP42", "setting": "[2]; 4 weeks of differentiation, versus control", "result": "considerably higher levels"}, {"measurement": "effect on PAX6 / neuronal marker expression", "setting": "[2]; early neuronal differentiation, qRT-PCR, HCl", "result": "delays the onset and reduces the amount of neuronal marker expression; also recorded: delay or reduce the level of expression"}, {"measurement": "expression levels of the stem cell genes POU5F1, NANOG and ZFP42", "setting": "[2]; first 2 weeks of neuronal differentiation, qRT-PCR", "result": "maintained largely at undifferentiated levels"}, {"measurement": "Full EHNA effect", "setting": "[3]; 10 uM, NANOG at least 50% of EHNA level and PAX6 50% or less of untreated control", "result": "X"}, {"measurement": "SOX2 transcription in differentiating conditions", "setting": "[3]; FIG. 9a", "result": "maintained transcription at the same level as seen in undifferentiated hESCs and the untreated samples"}, {"measurement": "stem cell marker expression (NANOG, ZFP42, POU5F1) in differentiating conditions", "setting": "[3]; FIG. 9a", "result": "distinctly inhibited the down-regulation of the stem cell markers NANOG, ZFP42 and POU5F1"}, {"measurement": "induction of other differentiation markers (AFP, CD34, Brachyury, PECAM1, CDX2 and FOXA2)", "setting": "[3]; data not shown", "result": "No induction of these markers"}, {"measurement": "NANOG expression in differentiating conditions", "setting": "[3]; relative to untreated control", "result": "clearly maintains a higher level of NANOG than the untreated control"}, {"measurement": "PAX6 expression in differentiating conditions", "setting": "[3]; HCl", "result": "inhibited the rise of PAX6 expression levels; also recorded: inhibits the onset of the differentiation marker PAX6"}, {"measurement": "cells positive for POU5F1", "setting": "[4]", "result": "~100", "unit": "%"}]}
